Data as given in US20130252890A1, “6,7-DIHYDRO-5H-BENZO[7]ANNULENE DERIVATIVES, PROCESS FOR PREPARATION THEREOF, PHARMACEUTICAL PREPARATIONS COMPRISING THEM, AND THE USE THEREOF FOR PRODUCTION OF MEDICAMENTS” (BAYER INTELLECTUAL PROPERTY GMBH, priority 2010, published 2013).
“Also recorded” adds a separate entry of the source.

Experiments:
endometriosis lesions = experiment: Endometriosis model in the rat (autologous transplantation); assay type: in vivo; settings: rat
Source text: Using intact adult female rats, experimental endometriosis was induced in the autologous transplantation model based on Vernon M. W. and Wilson E. A., 1985 (Fertil Steril. 44(5):684-694). A uterine horn was removed from animals that were exclusively in oestrus, the myometrium was separated from the endometrium and biopsies with dimensions of 4×4 mm were obtained from the endometrial tissue. Two uterine fragments were transplanted onto the inside of the abdominal wall (peritoneum) and two uterine fragments were transplanted onto the mesenterium of the same animal (4 fragments per animal). After 21 days the animals with endometriosis were laparotomized, and the size of the transplants was determined. The animals were treated after laparotomy and then daily in the morning with the stated dosages of the selected claimed substances by subcutaneous administration. Finally, 28 days after the start of treatment (49 days after transplantation), all the animals were laparotomized again and the size of the lesion was measured and was correlated with the size before the start of treatment.

uterus [1] = experiment: Oestrogenic action - uterus growth test in the infantile rat; assay type: in vivo; settings: sc, 72 h, s.c. 3 days, maximum at dose 0.03 mg/kg, relative to E2 0.3 μg/animal, read-out: maximum uterotropic action (% estradiol action) in the dose range from 0.03 to 3 mg/kg
Experimental: Both the uterus and the vagina show a weight increase that is dependent on oestrogenic efficacy, in infantile animals when they are treated with a substance with oestrogenic action. In the uterus, under oestrogenic action there is also proliferation and increase in height of the luminal epithelium.
Immature, intact rats (n=5-6 animals/group; body weight 40-50 g) receive the substance s.c. for 3 days (d1-d3). On day 4 (d4) the animals are killed with CO2. The uteri are removed and weighed. For histological assessment, a piece of uterus, preferably a uterine horn, is fixed in formaldehyde and embedded in paraffin. The stimulation of the organ weights (relative to mg/100 g body weight) and the height of the epithelium are shown as percentage stimulation in comparison with the reference compound 17β-estradiol (E2). (Substitution dose of E2 0.3 μg/animal).

[2] = test system: ovarian estradiol synthesis; experiment: Stimulation of ovarian oestrogen synthesis (HPG axis) in intact adult rats; assay type: in vivo, rat; settings: hormonally intact adult rats, daily for 10 days; quotient of peripheral estradiol values after and before treatment
Source text: The clinical use both of pure anti-oestrogens and of various SERMs for the treatment of premenopausal women is limited by their property of stimulating the ovaries through activation of the hypothalamic-pituitary-gonadal axis (HPG axis), which leads to the increase in peripheral estradiol levels (Palomba, S., Orio, F., Jr., Morelli, M., Russo, T., Pellicano, M., Zupi, E., Lombardi, G., Nappi, C., Panici, P. L., and Zullo, F. (2002). Raloxifene administration in premenopausal women with uterine leiomyomas: a pilot study. J Clin Endocrinol Metab 87, 3603-3608). This stimulation of the HPG axis is associated with penetration of the blood-brain barrier and penetration of the brain. To investigate the ovary-stimulating properties of the claimed pharmacological compounds, hormonally intact adult rats were treated with the substances daily for a period of 10 days. The study end point is the quotient of peripheral estradiol values after and before treatment.

oestrogen receptor (ER) = target: T1, oestrogen receptor (ER) (Homo sapiens, UniProt P03372); experiment: Anti-oestrogenic action in MVLN cells (inhibition of estradiol-induced luciferase); assay type: cell-based; settings: inhibition of estradiol-induced luciferase signal, value of Ex. 44 is a mean value, read-out: Antioestrogenic action in vitro: MVLN transactivation antagonism IC50
T1 construct: These MVLN cells express, along with the functional oestrogen receptor (ER), a reporter construct; endogenous in cells; host or cells: MVLN cells (MCF7 derivative carrying a luciferase reporter construct)
T1 sequence (P03372 1-595): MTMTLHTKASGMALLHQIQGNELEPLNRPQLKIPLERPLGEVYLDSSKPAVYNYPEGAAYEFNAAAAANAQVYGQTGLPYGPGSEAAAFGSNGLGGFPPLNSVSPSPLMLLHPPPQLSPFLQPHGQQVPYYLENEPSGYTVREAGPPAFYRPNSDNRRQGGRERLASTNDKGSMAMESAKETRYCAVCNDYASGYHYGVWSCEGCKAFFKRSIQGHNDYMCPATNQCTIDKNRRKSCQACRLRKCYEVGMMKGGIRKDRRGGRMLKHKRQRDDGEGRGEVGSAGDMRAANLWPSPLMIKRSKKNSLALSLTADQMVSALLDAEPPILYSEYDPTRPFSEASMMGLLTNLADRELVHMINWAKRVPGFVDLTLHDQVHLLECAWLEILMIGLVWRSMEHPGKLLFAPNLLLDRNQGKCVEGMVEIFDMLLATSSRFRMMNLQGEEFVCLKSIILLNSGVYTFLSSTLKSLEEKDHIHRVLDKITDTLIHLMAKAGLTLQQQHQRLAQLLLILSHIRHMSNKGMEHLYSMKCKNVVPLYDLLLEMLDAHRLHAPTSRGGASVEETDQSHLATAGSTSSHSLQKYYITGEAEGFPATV
Outline: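 MVLN cells, MCF7 breast cancer derivatives carrying functional ER plus an ER-activated luciferase reporter, were treated with compounds in the presence of estradiol. Anti-oestrogenic activity taken as inhibition of the estradiol-induced luciferase signal.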

uterus [3] = experiment: Anti-uterus growth test in the adult rat; settings: sc, 72 h; ovariectomized adult rat, s.c. 3 days with 1.5 μg/kg/day 17β-estradiol; inhibition of uterus growth; value of 44 is a mean of two measurements; read-out: anti-oestrogenic activity in vivo in % at a dose of 0.3 mg/kg (rat)
Source text: The uterus of oestrogen-substituted rats can be used as a test model for detecting a direct action of substances with anti-oestrogenic properties. The parameter of oestrogenic action is estradiol-induced uterus growth in rats, which is inhibited by simultaneous administration of a substance with anti-oestrogenic action. The experimental animals (n=5-6 animals/group) were ovariectomized before the start of the test, to rule out the influence of endogenous oestrogens. After a phase of 6 to 10 days, the test substances are administered s.c. on 3 consecutive days (d1-d3) in combination with a substitution dose of 1.5 μg/kg/day 17β-estradiol. 17β-estradiol alone serves as positive control, and the excipients serve as negative control. On day 4 (d4) the animals are killed, and the uteri and vaginae are removed and weighed. The organ weights are converted to mg/100 g body weight, then the mean value and the standard deviation are calculated for each dosage. The inhibition of uterus growth induced by 17β-estradiol is shown as percentage inhibition.

[4] = test system: peripheral cholesterol level; experiment: Hepatic oestrogenicity in the ovariectomized adult rat (plasma cholesterol); assay type: in vivo; settings: ovariectomized adult rats, s.c. daily for 6 days; cholesterol day 0 vs day 8
Source text: Substances with oestrogenic action influence the synthesis of various plasma proteins, of coagulation factors and fibrinolytic factors in the liver. […] In the present investigations, lowering of the peripheral cholesterol level is used as a surrogate parameter for analysis of the hepatic oestrogenicity of the claimed pharmacological compounds. Adult ovariectomized rats were, after a pause of 6-10 days, treated daily for 6 days with the substances by subcutaneous application. The plasma cholesterol levels were determined and compared before and after the respective treatment.

[5] = test system: trabecular bone density and uterus weight; assay type: in vivo, rat; settings: adult ovariectomized rats, 56 days; compound 44 oral 1-10 mg/kg, effect already beginning with 1 mg/kg
Experimental: 3-months-old female rats are ovariectomized and immediately after the operation they are treated with the test compound once daily for 56 days. Application is oral in peanut oil/ethanol. The animals are killed on the day after the last application and the tibia and the uteri are removed. The uteri are weighed, fixed and prepared for histological investigations. Bone density is determined ex vivo on prepared long bones by pQCT (peripheral quantitative computed tomography).
Ovariectomy leads to a decrease in density of the trabecular bone in the measured region. By treatment with a compound of general formula I according to the present invention (dosages of 1-10 mg/kg/day) the decline in bone density is prevented or inhibited. Bone density was measured on the proximal tibia.
The bone-protective action in adult ovariectomized female animals (rat) was investigated as described. […] The selected claimed pharmacological example compound 44 was applied orally at dosages from 1-10 mg/kg.

ERα protein = target: T2, ERα protein (Homo sapiens, UniProt P03372); experiment: Effect on stability of ERα protein in T47D breast cancer cells (ELISA); assay type: cell-based; settings: 24 hours, ER protein by ELISA
T2 construct: These cells express the ER in functional form; endogenous in cells; host or cells: T47D breast cancer cells
T2 sequence (P03372 1-595): T1 sequence (P03372 1-595)
Experimental: As well as inhibition of the transcriptional activity of the ER, anti-oestrogens influence the expression level of the ER in the target tissues through stimulation of the proteolytic degradation of the ER. In comparison with an ER-E2 complex, the ER bound in a complex with the pure anti-oestrogen fulvestrant has a substantially shorter half-life.
The effect of the claimed pharmacological compounds on the stability of the ER was analysed in T47D breast cancer cells (see Table 1, column Standardized ER-destabilization [%]). These cells express the ER in functional form. The cells are incubated for 24 hours with the claimed compounds at a concentration of 1 μM. After lysis of the cells, the content of ER protein was determined by ELISA. […] Compounds with ER content below 30% are classified as destabilizing.
As described, the claimed pharmacological substances were investigated for their action on the stability of the ERα protein (see Table 1).

Row | SMILES | dosage with significant reduction in sizes of lesions (endometriosis lesions; 28 days of treatment, 115 tested 0.1-1 mg/kg, 44 tested 0.3-10 mg/kg) | reduction of lesion size (endometriosis lesions; s.c. daily, 4 weeks (FIG. 2A, FIG. 2B)) | Emax at 0.03 mg/kg (uterus [1]) | Stimulation of ovarian oestrogen synthesis: factor at a dose of 3 mg/kg rat [2] | IC50 (oestrogen receptor (ER)) | inhibition in vivo at 0.3 mg/kg (uterus [3]) | hepatic oestrogenicity: lowering of the peripheral cholesterol level [4] | bone-protective action (trabecular bone mass density, tibia) [5] | relative ERα content (% ER) (ERα protein)
1 | CN(CCCCCCC1=C(c2ccc(F)cc2)CCCc2cc(O)ccc21)CCCS(=O)(=O)CCCC(F)(F)C(F)(F)F [Example 115, 8-(4-fluorophenyl)-9-[6-(methyl{3-[(4,4,5,5,5-pentafluoropentyl)sulphonyl]propyl}amino)hexyl]-6,7-dihydro-5H-benzo[7]annulen-3-ol] | 1 mg/kg | significant dose-dependent reduction of lesion size | 3% | 2.7 | 13 nM | 50% | only observed at high dosage |  | 
2 | O=C(c1ccc(OCCN2CCCCC2)cc1)c1c(-c2ccc(O)cc2)sc2cc(O)ccc12 [raloxifene, reference compound] |  |  | 18% |  |  |  | hepatic oestrogenicity at all dosages tested; also recorded: marked lowering of the cholesterol level at all dosages | marked bone protective action | 
3 | C[C@]12CC[C@@H]3c4ccc(O)cc4C[C@@H](CCCCCCCCC[S+]([O-])CCCC(F)(F)C(F)(F)F)[C@H]3[C@@H]1CC[C@@H]2O (stereo partly shown) [fulvestrant, reference compound] |  |  |  |  |  |  |  |  | 0%
4 | CN(CCCCCCC1=C(c2ccc(F)cc2)CCCc2cc(O)ccc21)CCC[S+]([O-])CCCC(F)(F)C(F)(F)F (stereo not shown) [Example 118, 8-(4-fluorophenyl)-9-[6-(methyl{3-[(4,4,5,5,5-pentafluoropentyl)sulphinyl]propyl}amino)hexyl]-6,7-dihydro-5H-benzo[7]annulen-3-ol] |  |  | 8% | 2.3 | 9 nM | 78% | only observed at high dosage |  | 
